From ChEMBL document CHEMBL4196092, “Synthesis and biological evaluation of nannocystin analogues toward understanding the binding role of the (2R,3S)-Epoxide in nannocystin A” (Eur J Med Chem, 2018)
Activity calls are given as the source filed them. The calls are words filed in the database; no cut-off is given here.

Key:
Homo sapiens = species on record: Homo sapiens; test: Inhibition of eEF1alpha protein expression in human PANC1 cells by Western blot analysis; assay type: cell-based
PANC-1 = test: Antiproliferative activity against human PANC1 cells; assay type: functional, cell-based
HepG2 = test: Antiproliferative activity against human HepG2 cells; assay type: functional, cell-based
HCT-116 = test: Antiproliferative activity against human HCT116 cells; assay type: functional, cell-based

`CC[C@H](C)[C@H]1C(=O)N[C@H](Cc2ccc(O)c(Br)c2)C(=O)N[C@@H](C(C)(C)O)C(=O)O[C@H](c2ccccc2)[C@H](C)/C=C/C=C(\C)[C@H](OC)C/C=C(\C)C(=O)N1C` was tested, and the inhibition (Homo sapiens) was “Active”, the IC50 (PANC-1) was 11.4 nM and the IC50 (HepG2) was 5.21 nM. The IC50 (HCT-116) was 3.88 nM.

`CC[C@H](C)[C@H]1C(=O)N[C@H](Cc2cc(Cl)c(O)c(Cl)c2)C(=O)N[C@@H](C(C)(C)O)C(=O)O[C@H](c2ccccc2)[C@H](C)/C=C/C=C(\C)[C@H](OC)C[C@H]2O[C@]2(C)C(=O)N1C` was tested, and the inhibition (Homo sapiens) was “Active”, the IC50 (PANC-1) was over 200 nM and the IC50 (HepG2) was over 200 nM. For the same molecule, the IC50 (HCT-116) was over 200 nM.

`CC[C@H](C)[C@H]1C(=O)N[C@H](Cc2ccc(O)c(Br)c2)C(=O)N[C@@H](C(C)(C)O)C(=O)O[C@H](c2ccccc2)[C@H](C)/C=C/C=C(\C)[C@H](OC)C[C@@H]2O[C@@]2(C)C(=O)N1C` was tested, and the inhibition (Homo sapiens) was “Active”, the IC50 (PANC-1) was 9.61 nM and the IC50 (HepG2) was 2.98 nM. The IC50 (HCT-116) was 1.59 nM.

`CC[C@H](C)[C@H]1C(=O)N[C@H](Cc2ccc(O)c(Br)c2)C(=O)N[C@@H](C(C)C)C(=O)O[C@H](c2ccccc2)[C@H](C)/C=C/C=C(\C)[C@H](OC)C[C@@H]2O[C@@]2(C)C(=O)N1C` was tested, and the inhibition (Homo sapiens) was “Active”, the IC50 (PANC-1) was 15.7 nM and the IC50 (HepG2) was 6.84 nM. It also gave an IC50 (HCT-116) of 3.93 nM.

With `CC[C@H](C)[C@H]1C(=O)N[C@H](Cc2cc(Cl)c(O)c(Cl)c2)C(=O)N[C@@H](C(C)C)C(=O)O[C@H](c2ccccc2)[C@H](C)/C=C/C=C(\C)[C@H](OC)C[C@@H]2O[C@@]2(C)C(=O)N1C` the inhibition (Homo sapiens) was “Active”, the IC50 (PANC-1) was 15.5 nM and the IC50 (HepG2) was 5.65 nM. It also gave an IC50 (HCT-116) of 4.25 nM.

`CC[C@H](C)[C@H]1C(=O)N[C@H](Cc2cc(Cl)c(O)c(Cl)c2)C(=O)N[C@@H](C(C)(C)O)C(=O)O[C@H](c2ccccc2)[C@H](C)/C=C/C=C(\C)[C@H](OC)C[C@@H]2O[C@@]2(C)C(=O)N1C` was tested, and the inhibition (Homo sapiens) was “Active”, the IC50 (PANC-1) was 12.2 nM and the IC50 (HepG2) was 3.36 nM. It also gave an IC50 (HCT-116) of 2.11 nM.

`CC[C@H](C)[C@H]1C(=O)N[C@H](Cc2cc(Cl)c(O)c(Cl)c2)C(=O)N[C@@H](C(C)(C)O)C(=O)O[C@H](c2ccccc2)[C@H](C)/C=C/C=C(\C)[C@H](OC)C/C=C(\C)C(=O)N1C` was tested, and the inhibition (Homo sapiens) was “Active”, the IC50 (PANC-1) was 11.3 nM and the IC50 (HepG2) was 2.75 nM. The IC50 (HCT-116) was 1.6 nM.

`CC[C@H](C)[C@H]1C(=O)N[C@H](Cc2ccc(O)c(Br)c2)C(=O)N[C@@H](C(C)(C)O)C(=O)O[C@H](c2ccccc2)[C@H](C)/C=C/C=C(\C)[C@H](OC)C[C@H]2O[C@]2(C)C(=O)N1C` was tested, and the inhibition (Homo sapiens) was “Active”, the IC50 (PANC-1) was over 200 nM and the IC50 (HepG2) was over 200 nM. The IC50 (HCT-116) was over 200 nM.

In the case of `CC[C@H](C)[C@H]1C(=O)N[C@H](Cc2cc(Cl)c(O)c(Cl)c2)C(=O)N[C@@H](C(C)C)C(=O)O[C@H](c2ccccc2)[C@H](C)/C=C/C=C(\C)[C@H](OC)C/C=C(\C)C(=O)N1C`, the inhibition (Homo sapiens) is reported as “Active”, the IC50 (PANC-1) is reported as 137 nM and the IC50 (HepG2) is reported as 104 nM. It also gave an IC50 (HCT-116) of 21.6 nM.

In the case of `CC[C@H](C)[C@H]1C(=O)N[C@H](Cc2ccc(O)c(Br)c2)C(=O)N[C@@H](C(C)C)C(=O)O[C@H](c2ccccc2)[C@H](C)/C=C/C=C(\C)[C@H](OC)C/C=C(\C)C(=O)N1C`, the inhibition (Homo sapiens) is reported as “Active”, the IC50 (PANC-1) is reported as 55.8 nM and the IC50 (HepG2) is reported as 53.7 nM. The IC50 (HCT-116) was 13.2 nM.
